Patent publication US8486957B2, “Chemotherapeutic for inducing an MSH2-dependent apoptotic pathway” (Wake Forest University Health Sciences, priority 2007, dated 2013)
Where two headings read alike, the source gives them in different places.

How the values were obtained:
[1] = test system: MSH2-deficient HEC59 cells; experiment: Cell viability (MTS) assay, MSH2-deficient cells; format: cell-based, human; conditions: for IC50 / MSH2 dependence of cell death response (words): 24 h exposure; for Fold difference: IC50 MSH2-deficient vs MSH2-proficient cells, 24 h; for MSH2 dependence of cell death response (words): MSH2-deficient vs -proficient cells; for induction of cell death: MSH2-deficient cells
Method: (§1) Cells proficient and deficient in MSH2 were exposed to increasing concentrations of the drugs and cell survival determined in an MTS assay. This assay is based on the mitochondrial activity of living cells that reduces the tetrazolium product (MTS) into a formazan product that can be spectrophotometrically analyzed at OD490.
(§2) Cell Viability assays. HEC59 cells and their isogenic counterpart with chromosome 2 transfer were grown in standard growth media of DMEM-F12+10% FBS. Cells were plated in 96 well plates at an appropriate concentration in 100 μl media and incubated overnight. Media was replaced with fresh media containing drug and allowed to incubate for 24 hrs at indicated concentrations. Untreated cells received fresh media containing 0.1% DMSO. One solution reagent (CellTiter 96(r) AQueous One Solution) is added to existing media (20 μl/well) and allowed to incubate 3-4 hrs. A plate reader was used to record the absorbance at 490 nm.
(§3) The CellTiter 96® AQueous One Solution Cell Proliferation Assay® is a colorimetric method for determining the number of viable cells in proliferation, cytotoxicity or chemosensitivity assays. The CellTiter 96® AQueous One Solution Reagent contains a tetrazolium compound [3-(4,5-dimethylthiazol-2-yl)-5-(3-carboxymethoxyphenyl)-2-(4-sulfophenyl)-2H-tetrazolium, inner salt; MTS] and an electron coupling reagent (phenazine ethosulfate; PES). PES has enhanced chemical stability, which allows it to be combined with MTS to form a stable solution. The quantity of formazan product as measured by the amount of 490 nm absorbance is directly proportional to the number of living cells in culture.
(§4) Dose-dependent response to nineteen increasing concentrations of the respective compound was determined, and analyzed for IC50 values using GraphPad Prism 4™. Each compound was analyzed in triplicates.

[2] = test system: MSH2/6-dependent cell death; experiment: Caspase-3-dependent cell death assay; format: cell-based
[3] = test system: A2780 cells; experiment: MTS assay, platinum sensitive ovarian cancer cells; format: cell-based; conditions: for cell killing: 10 uM cisplatin, 20 uM rescinnamine, lisinopril
Method: (§5) A2780 is a cisplatinum-sensitive ovarian cancer cell line, […] its isogenic, but cisplatinum-resistant counterpart. Shown are average and standard deviations of a minimum of 3 individual experiments. Results were normalized to the untreated control. FIG. 5: MTS assays of platinum sensitive (A2780) and resistant (A2780cis) cells in the presence of 10 uM cisplatinum and increasing concentrations of rescinnamine. FIG. 6: MTS assay of A2780 and A2780cis ovarian cancer cells, untreated, treated with 10 uM cisplatin, 20 uM rescinnamine and lisinopril.

[4] = test system: A2780cis cells; experiment: MTS assay, platinum resistant ovarian cancer cells; format: cell-based; conditions: for cell killing: 10 uM cisplatin, 20 uM rescinnamine, lisinopril
Method: as §5

[5] = test system: MSH2-proficient HEC59 cells with chromosome 2 transfer (HEC59 chr.2); experiment: Cell viability (MTS) assay, MSH2-proficient cells; format: cell-based, human; conditions: for IC50: 24 h exposure; for induction of cell death: MSH2-proficient cells
Method: as §1, §2, §3, §4

[6] = test system: RKO oxa cells; experiment: MTS assay, oxaliplatin insensitive colorectal cancer cells; format: cell-based
From the text: FIG. 7: MTS assay of colorectal cancer cells sensitive (RKO) and insensitive (RKO oxa) to oxaliplatin, treated with oxaliplatin, rescinnamine and combination.

[7] = test system: MSH2-deficient HEC59 cells; conditions: 48-72 hours after first exposure; cited from earlier work
[8] = Homo sapiens, MTS, read-out: IC50 MSH2-deficient
[9] = in the presence of 10 uM cisplatinum
[10] = Homo sapiens, MTS, read-out: IC50 MSH2-proficient
[11] = Homo sapiens, read-out: IC50 in MSH2-proficient cells
[12] = Homo sapiens, read-out: IC50 in MSH2-deficient cells

Compound | IC50 [1, 8] [µM] | Fold difference [1] | MSH2 dependence of cell death response (words) [1] | IC50 [5, 10] [µM] | IC50 [5, 11] [µM] | also measured
COC(=O)[C@H]1[C@H]2C[C@@H]3c4[nH]c5cc(OC)ccc5c4CCN3C[C@H]2C[C@@H](OC(=O)/C=C/c2cc(OC)c(OC)c(OC)c2)[C@@H]1OC [rescinnamine] | 87 | 2.6 | robust MSH2-dependent cell death response | 39 | 39 | induction of MSH2/6-dependent cell death [2]: induces the targeted, MSH2/6-dependent cell death; cell killing [3]: more effective in sensitive ovarian cancer cells than cisplatinum; cell death with increasing concentrations of rescinnamine [3, 9]: concentration-dependent, significant cell death; cell killing [4]: overcoming cisplatinum resistance; cell death with increasing concentrations of rescinnamine [4, 9]: concentration-dependent, significant cell death; MSH2-dependent induction of cell death relative to reserpine [5]: roughly 2 fold; overcoming oxaliplatin resistance [6]: overcomes oxaliplatin resistance, albeit not to the same extent as cisplatinum resistance
NCCCC[C@H](N[C@@H](CCc1ccccc1)C(=O)O)C(=O)N1CCC[C@H]1C(=O)O [lisinopril] |  |  |  |  |  | cell killing [3]: does not show the same effect; cell killing [4]: does not show the same effect
Evodiamine |  |  |  |  |  | induction of cell death [1]: no significant cytotoxic effect; induction of cell death [5]: no significant cytotoxic effect
COC(=O)[C@H]1[C@H]2C[C@@H]3c4[nH]c5cc(OC)ccc5c4CCN3C[C@H]2C[C@@H](OC(=O)/C=C/c2ccccc2)[C@@H]1OC [cinnamoyl reserpine, Cinnamyl reserpine] | 150 | 1.2 | independent of functional MSH2 | 130 | 130 | IC50 [1, 12]: 150 µM
COC(=O)[C@H]1[C@H]2C[C@@H]3c4[nH]c5cc(OC)ccc5c4CCN3C[C@H]2C[C@@H](OC(=O)c2cc(OC)cc(OC)c2)[C@@H]1OC [3,5-dimethoxy benzoyl, 3,5-Dimethoxybenzoyl reserpine] | 36 | 0.95 |  | 38 |  | 
COC(=O)[C@H]1[C@H]2C[C@@H]3c4[nH]c5cc(OC)ccc5c4CCN3C[C@H]2C[C@@H](OC(=O)c2ccc(OC)cc2)[C@@H]1OC [4-methoxy benzoyl, 4-Methoxybenzoyl reserpine] | 68 | 1.01 |  | 67 |  | 
COC(=O)[C@H]1[C@H]2C[C@@H]3c4[nH]c5cc(OC)ccc5c4CCN3C[C@H]2C[C@@H](OC(=O)c2ccc3c(c2)OCO3)[C@@H]1OC [methylendioxy-benzoyl, 3,4-Methylenedioxy benzoyl reserpine] | 36 | 0.71 | MSH2-deficient cells show a higher sensitivity | 51 | 51 | IC50 [1, 12]: 36 µM
COC(=O)[C@H]1[C@H]2C[C@@H]3c4[nH]c5cc(OC)ccc5c4CCN3C[C@H]2C[C@@H](OC(=O)c2cc(OC)c(OC)c(OC)c2)[C@@H]1OC [reserpine] | 93 | 1.5 | robust MSH2-dependent cell death response | 61 | 61 | MSH2 dependence of cell death response (words) ([1]; listed as Reserpine): significant increase in resistance
COC(=O)[C@H]1[C@H]2C[C@@H]3c4[nH]c5cc(OC)ccc5c4CCN3C[C@H]2C[C@@H](OC(=O)c2ccc(OC)c(OC)c2)[C@@H]1OC [3,4-dimethoxy benzoyl, 3,4-Dimethoxybenzoyl reserpine] | 85 | 1.3 | significant MSH2-dependent cell death response | 66 | 66 | IC50 [1, 12]: 85 µM
COC(=O)[C@H]1[C@H]2C[C@@H]3c4[nH]c5cc(OC)ccc5c4CCN3C[C@H]2C[C@@H](OC(=O)c2cccc(OC)c2)[C@@H]1OC [3-methoxy benzoyl, 3-Methoxybenzoyl reserpine] | 83 | 0.94 |  | 88 |  | 
COC(=O)[C@H]1[C@H]2C[C@@H]3c4[nH]c5ccccc5c4CCN3C[C@H]2C[C@@H](OC(=O)c2cc(OC)c(OC)c(OC)c2)[C@@H]1OC [deserpidine] | 59 | 1.2 | no significant specificity for the presence of MSH2 | 48 | 49 | IC50 [1, 12]: 56 µM
N.N.[Cl][Pt][Cl] [cisplatin] |  | 1.6 | only a weak difference |  |  | IC50 ([1]; MTS, read-out: IC50 MSH2-deficient): 75 µM; IC50 ([5]; MTS, read-out: IC50 MSH2-proficient): 47 µM; increase in resistance in MSH2-deficient cells, late response [7]: two- to four-fold increase in resistance
COC(=O)[C@H]1[C@H]2C[C@@H]3c4[nH]c5cc(OC)ccc5c4CCN3C[C@H]2C[C@@H](OC(=O)c2ccccc2)[C@@H]1OC [MJG-6-41, Benzoyl resperine] | 110 | 0.83 |  | 132 |  | 
COC(=O)[C@H]1[C@H]2C[C@@H]3c4[nH]c5cc(OC)ccc5c4CCN3C[C@H]2C[C@@H](O)[C@@H]1OC [Methyl Reserpate, Methyl reserpate] |  |  | no preference for either cell line |  |  | induction of cell death [1]: only weakly induces cell death; induction of cell death [5]: only weakly induces cell death
